Experiments:
[1] = test system: HCMV; experiment: HCMV plaque reduction assay in HFF cells; type: cell-based, Human CMV (HCMV); conditions: HFF cells; plaque reduction
Description: (§1) Cells and viruses. The routine growth and passage of KB cells was performed in monolayer cultures using minimal essential medium (MEM) with either Hanks salts [MEM(H)] or Earle salts [MEM(E)] supplemented with 10% calf serum. The sodium bicarbonate concentration was varied to meet the buffering capacity required. Cultures of diploid human foreskin fibroblasts (HFF) or MRC-5 cells were grown in medium consisting of MEM(E) with 10% fetal bovine serum. Cells were passaged at 1:2 to 1:10 dilutions according to conventional procedures by using 0.05% trypsin plus 0.02% EDTA in a HEPES buffered salt solution (HBS) (Shipman, C., Jr., Proc. Soc. Exp. Biol. 130:305-310 (1969)) as described previously. Turk, S. R., et al., Antimicrob. Agents Chemother. 31:544-550 (1987). HFF and MRC-5 cells were passaged only at 1:2 dilutions. CEM cells were maintained in suspension culture as detailed previously. Kucera, L. S., et al., AIDS Res. Human Retroviruses 9:307-314 (1993).
(§2) Virological procedures. Stock HCMV was prepared by infecting HFF cells at a multiplicity of infection (m.o.i.) of <0.01 plaque-forming units (p.f.u.) per cell. Cell growth medium was changed every four days until cytopathology was evident in all cells (approximately 21 days). Supernatant fluids were retained as the virus stock. High titer HSV-1 stocks were prepared by infecting KB cells at an m.o.i. of <0.1 as detailed previously. Turk, S. R., et al., Antimicrob. Agents Chemother. 31:544-550 (1987). Virus titers were determined using monolayer cultures of HFF cells for HCMV and monolayer cultures of BSC-1 cells for HSV-1 as described earlier. Prichard, M. N., et al., J. Virol. Methods 28:101-106 (1990). Briefly, HFF or BSC-1 cells were planted as described above in 96-well cluster dishes and incubated overnight at 37° C. in a humidified 3% CO297% air atmosphere. The next day cultures were inoculated with HCMV or HSV-1 and serially diluted 1:3 across the remaining eleven columns of the 96-well plate. Cultures were incubated at 37° C. for 2 hr to permit virus adsorption and then virus inoculum was replaced with 0.2 mL of fresh medium. Cultures were incubated for seven days for HCMV, two or three days for HSV-1, medium was removed, and the cell sheets were stained with 0.1% crystal violet in 20% methanol. Plaques were enumerated under 20-fold magnification in wells having the dilution which gave 5 to 20 plaques per well. Virus titers were calculated according to the following Formula: Titer (p.f.u./mL)=number of plaques×5×3^n; where n represents the nth dilution of the virus used to infect the well in which plaques were enumerated.
(a) HCMV. The effect of compounds on the replication of HCMV has been measured using a plaque reduction assay. HFF cells in 24-well cluster dishes were infected with approximately 100 p.f.u. of HCMV per cm^2 cell sheet using the procedures detailed above. Following virus adsorption, compounds dissolved in growth medium were added to duplicate wells in three to six selected concentrations. Following incubation at 37° C. for 7 to 10 days, cell sheets were fixed, stained with crystal violet and microscopic plaques enumerated as described above. Drug effects were calculated as a percentage of reduction in number of plaques in the presence of each drug concentration compared to the number observed in the absence of drug. Ganciclovir (DHPG) was used as a positive control in all experiments.
(§3) Data Analysis. Dose-response relationships were constructed by linearly regressing the percent inhibition of parameters derived in the preceding sections against log drug concentrations. Fifty-percent inhibitory (IC50) concentrations were calculated from the regression lines. Samples containing positive controls (acyclovir for HSV-1, ganciclovir for HCMV, and 2-acetylpyridine thiosemicarbazone for cytotoxicity) were used in all assays.

[2] = test system: HCMV; experiment: HCMV yield reduction assay in HFF cells; type: cell-based, Human CMV (HCMV); conditions: footnote says IC90
Description: as §2
The effect of compounds on the replication of HCMV also was measured using a yield reduction assay. HFF cells were planted as described above in 96-well cluster dishes, incubated overnight, medium removed and the cultures were inoculated with HCMV at a m.o.i. of 0.5 to 1 p.f.u. per cell as reported elsewhere. After virus adsorption, inoculum was replaced with 0.2 mL of fresh medium containing test compounds. The first row of 12 wells was left undisturbed and served as virus controls. Each well in the second row received an additional 0.1 mL of medium with test compound at three times the desired final concentration. The contents of the 12 wells were mixed by repeated pipetting and then serially diluted 1:3 along the remaining wells. In this manner, six compounds could be tested in duplicate on a single plate with concentrations from 100 μM to 0.14 μM. Plates were incubated at 37° C. for seven days, subjected to one cycle of freezing and thawing; aliquots from each of the eight wells of a given column were transferred to the first column of a fresh 96-well monolayer culture of HFF cells. Contents were mixed and serially diluted 1:3 across the remaining eleven columns of the secondary plate. Each column of the original primary plate was diluted across a separate plate in this manner. Cultures were incubated, plaques were enumerated, and titers calculated as described above.
as §3

[3] = test system: HSV-1; experiment: HSV-1 ELISA in BSC-1 cells; type: cell-based, herpes simplex 1 (HSV-1); conditions: BSC-1 cells; ELISA
Description: as §2
(b) HSV-1. An enzyme-linked immunosorbent assay (ELISA) was employed to detect HSV-1. 96-well cluster dishes were planted with BSC-1 cells at 10,000 cells per well, in a total volume of 200 μL per well of MEM(E) plus 10% calf serum. After overnight incubation at 37° C., drug and HSV-1 was added at the rate of 100 PFU/well. ELISA plates were blocked with 200 μL per well of 10% calf serum and 0.05% tween in HBS. After incubation for 30 minutes, the blocking agent was rinsed two times with HBS-T. A 1:400 dilution of AP conjugated rabbit anti-HSV-1 antibody in HBS-F was added. Plates were sealed with adhesive sheet, and incubated on rocker for one hour at 37° C. Plates were developed in the dark with 100 μL per well of substrate solution containing p-nitrophenyl phosphate. Plates were read at […]. Drug effects were calculated as a percentage of the reduction in virus in the presence of each drug concentration compared to the titer obtained in the absence of drug. Acyclovir was used as a positive control in all experiments.
as §3

[4] = test system: HFF cells; experiment: Cytotoxicity in stationary HFF cells, microscopic inspection; type: cell-based, human
Description: as §1
(§4) Cytotoxicity assays. Two different assays were used to explore cytotoxicity of selected compounds as we have detailed previously. (i) Cytotoxicity produced in stationary HFF cells and in growing CEM cells was determined by microscopic inspection of cells used in plaque and RT assays which were not affected by the virus. Turk, S. R., et al., Antimicrob. Agents Chemother. 31:544-550 (1987). (ii) The effect of compounds during two population doublings of KB cells was determined by crystal violet staining and spectrophotometric quantitation of dye eluted from stained cells. Prichard, M. N., et al., Antimicrob. Agents Chemother. 35:1060-1065 (1991).
as §3

[5] = test system: KB cells; experiment: Cytotoxicity in KB cells, growth over two population doublings; type: cell-based
Description: as §1, §4, §3

[6] = test system: CEM cells; experiment: Cytotoxicity in growing CEM cells, microscopic inspection; type: cell-based
Description: as §1, §4, §3

## Nc1ncnc2c1ncn2C=C1CC1CO (stereo not drawn) [1 (B = adenine), Example 5, syn-N^9-(2-hydroxymethylcyclopropylidenemethyl)adenine]
[1]
  IC50: 2 µM
[2]
  IC90: 1.5 µM
[3]
  IC50: 3.7 µM
[4]
  IC50: > 100 µM
[5]
  IC50: 82 µM
[6]
  IC50: > 100 µM

Reference: patent US6958345B2, “2-hydroxymethylcyclopropylidene methylpurines and -pyrimidines as antiviral agents” (The Regents of the University of Michigan, priority 1997, dated 2005)
